{
  "source": "patent US11634381B2",
  "about": "“RUNX2 transcription factor inhibitors and uses thereof” (University of Maryland, Baltimore, priority 2015, dated 2023)",
  "type_in_all_cases": "cell-based, human",
  "key": {"[1]": {"tested_on": "MCF7-tet-off or MDA-231 cells", "experiment": "Calcein-AM viability assay", "settings": "over 24 hrs", "description": "In FIGS. 9A-9C compound 1 was added at the initial day of cell plating. Tumorspheres of MCF7-tet-off (−Doxy) cells were photographed for 18 days at ×40 and ×100 magnifications (FIG. 9A), and counted at the final day at ×40 magnification (FIG. 9C). Tumorspheres of MDA-231, MDA-468 and MCF7 cells at day 7 are shown (FIG. 9B). Spheres of MDA-231 and MCF7 cells were counted at day 18 with ×20 magnification. Spheres of vehicle-treated MDA-468 cells were counted at day 7 with ×20 magnification as they became fragile and disrupted 7 days after incubation. In FIG. 9C sphere number (No.) was counted from 9 fields per well. Data presented as mean±SD. Experiments were done in triplicate and repeated three times. *, P<0.05 compared to +Doxy; ^#, P<0.05 compared to −Doxy with vehicle treatment. Box, RUNX2 induction upon Doxy removal from MCF7-tet-off cells (−D). In FIG. 9D to ensure robust sphere formation, compound 1 was added 4 days after cell plating (D4+), and cells were further incubated for 5 days (D5) or for 7 days (D7). In FIG. 9E the cellular invasive ability of MCF7-tet-off cells (left) was evaluated by the 96 Well BME Cell Invasion Assay and xCELLigence systems in vitro, respectively. In parallel, similar amount of cells were plated in separate plates and treated with compound 1 for 24 hrs, and Calcein-AM assay was performed (right). […]"}, "[2]": {"tested_on": "MDA-231, MDA-468, MCF7 and BT474 breast cancer cells", "experiment": "ROS production luminometer assay", "settings": "0-100 μM, 6-18 hours", "description": "In FIG. 27A MDA-231, MDA-468, MCF7 and BT474 breast cancer cells were treated with compound 1 (0-100 μM) for 6-18 hours and ROS production in response to H2O2 treatment (2 mM) was measured with luciferase-based luminometer assay. In FIG. 27B T47D-Vector control or T47D-RUNX2-clone #10 overexpressing cells; MCF7-Vector Control or RUNX2-clone #2 overexpressing cells were treated with 50 μM compound 1 for 6 hours."}, "[3]": {"tested_on": "PDH", "experiment": "PDH enzymatic activity microtiter plate assay", "settings": "MDA-MB-468 and MCF7, 50 μM", "description": "In FIG. 23A PDH enzymatic activity was determined in doxycycline-responsive MCF7-tet-off (left) and Hs578t-Control or RUNX2 KD cells (right) or non-targeting control siRNA (NTC=RUNX2+) versus RUNX2 KD (55.5 cells=RUNX2 KD) using an antibody-specific microtiter plate assay. Results are expressed as the change in Absorbance at 450 nm per minute per mg protein (ΔmOD450/min/mg) (*p<0.05). In FIG. 23B PDH activity was determined in MDA-MB-468 (left) and MCF7 (right) BC cell lines with or without compound 1 treatment (50 μM) for the indicated time period."}, "[4]": {"tested_on": "MCF7 RUNX2 Tet.OFF cells", "experiment": "Suspension culture tumorsphere formation", "settings": "for tumorsphere diameter: 50 μM compound 1, 12 days", "description": "MCF7 Tet.OFF cells were grown in the presence (+Dox, RUNX2 negative) or absence (−Dox, RUNX2 positive) of doxycycline for 3 days. Cells were then scraped and counted. 60,000 cells were plated in each well of a 6-well ultra-low attachment plate (Corning; 3471) in Promocell Basal Medium (Promocell; c-22211) complete with Supplement Mix (Promocell; c-39216). Cells were then treated with or without 2 ng/mL TGFβ (R&D Systems; 240-B-002). After growth for 10-15 days, wells were photographed and tumorsphere diameters were measured from photographic images (mm). Colony diameters were calculated using the formula: (L+W)/2. Representative photographs were obtained at 4× magnification. […] For TAZ siRNA knockdown experiments, TAZ siRNA was transfected (as below) into MCF7 Tet.OFF cells and 24 hr later cells were scraped and placed into suspension as described above. Small-Interfering RNA (siRNA) pool targeting RUNX1, RUNX2, and non-targeting control were purchased from Dharmacon, and transfected into cells using RNAiMAX Reagent (Invitrogen). Western blot analysis was performed 48 hrs after transfection."}, "[5]": {"tested_on": "MDA-231, MCF7, MDA-468, BT474 cells", "experiment": "Combination of compound 1 and CDK inhibitors, cell proliferation and colony assays"}, "[6]": {"tested_on": "MCF7-tet-off cells", "experiment": "96 Well BME Cell Invasion Assay", "settings": "MCF7-tet-off (+Doxy) and (-Doxy), 50 μM, 24 hrs", "description": "MCF7-tet-off cells were grown in the media with (+Doxy) or without doxycycline (−Dox) for 72 hours. Cells were then treated with compound 1 (50 μM) for 24 hrs, and trypsinized and suspended in serum-free media. Cells were re-plated in the top chamber precoated with 0.1× BME (Cultrex), and growth medium supplemented with 10% FBS was used as a chemoattractant in the bottom chamber. compound 1 was added to both chambers and incubated for 16 hrs. Cellular invasion was analyzed according to the 96 Well BME Cell Invasion Assay protocol (Cultrex)."}, "[7]": {"tested_on": "MCF10A non-malignant mammary epithelial cells", "experiment": "Mammosphere formation of non-malignant cells"}, "[8]": {"tested_on": "MCF7-tet-off (-Doxy), MDA-231, MDA-468 and MCF7 cells", "experiment": "Tumorsphere assay", "settings": "50 μM", "description": "Single cell suspensions (100,000 cells/well) wereplatedin 6-well ultra-low attachment plates (Corning) with 5 ml of EGM-2 supplemented with bullet kit (Lonza) and 2% FBS. compound 1 (50 μM) was added at the day of the plating or 4 days after plating. Tumorspheres were continuously photographed for 18 days and counted at the final day. Spheres were counted at 9 fields per well and averaged from triplicate."}, "[9]": {"tested_on": "Lats1/2", "experiment": "Lats1/2 phosphorylation (Hippo signaling)", "settings": "compound 1, 24 hours", "description": "In FIG. 22A HCC1428 luminal BC cells that express E-Cadherin were treated with recombinant soluble E-Cadherin (rsE-Cad) for 24 hr and total cell extracts were analyzed for phosphorylation of the Lats1/2 tumor suppressors. Phospho.Lats1/2 and total Lats1/2 levels declined with rsE-Cad treatment consistent with TAZ translocation to the nucleus, where it acts as an oncogene with RUNX2. […] MCF7 cells expressing RUNX2 (Tet.OFF) were treated with compound 1 drug for 24 hours and total cell extracts were analyzed for phosphp.Lats1/2, total Lats1/2, and RUNX2 expression."}},
  "data": [
    {"smiles": "O=C(O)C1C2C=CC(C2)C1C(=O)Nc1ccc(Cl)c(Cl)c1", "note": "(centres unmarked) [compound 1, 3-(N-(3,4-dichlorophenyl)carbamoyl)-5-norbornene-2-carboxylic acid]", "values": [
      {"measurement": "viability", "setting": "[1]", "value": "little effect"},
      {"measurement": "mitochondrial ROS production", "setting": "[2]", "value": "increase in mitochondrial ROS production"},
      {"measurement": "PDH activity", "setting": "[3]", "value": "increases PDH activity"},
      {"measurement": "tumorsphere diameter", "setting": "[4]; RUNX2 negative cells", "value": "6.37±1.78", "unit": "mm"},
      {"measurement": "fold inhibition of tumorsphere diameter relative to vehicle", "setting": "[4]; RUNX2 positive cells, 50 μM compound 1", "value": "~4", "unit": "fold"},
      {"measurement": "tumorsphere diameter", "setting": "[4]; RUNX2 positive cells", "value": "4.83±1.87", "unit": "mm"},
      {"measurement": "growth inhibition of BT474 cells", "setting": "[5]", "value": "sensitive"},
      {"measurement": "invasiveness", "setting": "[6]", "value": "almost abrogated"},
      {"measurement": "mammosphere formation", "setting": "[7]", "value": "did not have a significant influence"},
      {"measurement": "size and number of tumorspheres", "setting": "[8]", "value": "dramatically decreased"},
      {"measurement": "phosphorylation of the Lats1/2 tumor suppressors", "setting": "[9]", "value": "increase in phosphorylation"}
    ]}
  ]
}
